Measurements as given in patent US20220151236A1, “NOVEL OXADIAZOLE COMPOUNDS FOR CONTROLLING OR PREVENTING PHYTOPATHOGENIC FUNGI” (PI INDUSTRIES LTD., priority 2019, published 2022).
Counter-ions that a name gives are not always drawn.

Test system: Phakopsora pachyrhizi
Experiment: Phakopsora pachyrhizi Test on Soybean (preventive activity, greenhouse)
Format: in vivo
Settings: preventive spray on young Soybean plants, inoculated one day after treatment, rated 3, 7, 10 and 15 days after application, read-out: Efficacy (% control), disease severity compared to the untreated check
Experimental: Compounds were dissolved in 2% dimethyl sulfoxide/acetone and then mixed with water containing an emulsifier to a calibrated spray volume of 50 mL. This 50 mL spray solution was poured into spray bottles for further applications. To test the preventive activity of compounds, healthy young Soybean plants raised in the greenhouse were sprayed with the active compound preparation at the stated application rates inside the spray cabinets using hollow cone nozzles. One day after treatment, the plants were inoculated with a spore suspension containing 2×10^5 Phakopsora pachyrhizi conidia. The inoculated plants were then kept in a greenhouse chamber at 22-24° C. temperature and 80-90% relative humidity for disease expression. A visual assessment of the compound's performance was carried out by rating the disease severity (0-100% scale) on treated plants 3, 7, 10 and 15 days after application. Efficacy (% control) of the compounds was calculated by comparing the disease rating in the treatment with the one of the untreated control. The sprayed plants were also assessed for plant compatibility by recording symptoms like necrosis, chlorosis and stunting.

`O=C(Nc1ccc(F)cc1F)c1cn2cc(-c3noc(C(F)(F)F)n3)ccc2n1` [Compound 17, N-(2,4-difluorophenyl)-6-(5-(trifluoromethyl)-1,2,4-oxadiazol-3-yl)imidazo[1,2-a]pyridine-2-carboxamide] was tested, and the pest or weed control at 500 ppm was ≥ 70%.

In the case of `O=C(Nc1ccc(Cl)cc1)c1cn2cc(-c3noc(C(F)(F)F)n3)ccc2n1` [Compound 18, N-(4-chlorophenyl)-6-(5-(trifluoromethyl)-1,2,4-oxadiazol-3-yl)imidazo[1,2-a]pyridine-2-carboxamide], the pest or weed control at 500 ppm is reported as ≥ 70%.

For `Cc1ccc(NC(=O)c2cn3cc(-c4noc(C(F)(F)F)n4)ccc3n2)cc1` [Compound 19, N-(p-tolyl)-6-(5-(trifluoromethyl)-1,2,4-oxadiazol-3-yl)imidazo[1,2-a]pyridine-2-carboxamide], the pest or weed control at 500 ppm was ≥ 70%.

`O=C(Nc1ccccc1F)c1cn2cc(-c3noc(C(F)(F)F)n3)ccc2n1` [Compound 20, N-(2-fluorophenyl)-6-(5-(trifluoromethyl)-1,2,4-oxadiazol-3-yl)imidazo[1,2-a]pyridine-2-carboxamide] was tested, and the pest or weed control at 500 ppm was ≥ 70%.

With `CNC(=O)c1cn2cc(-c3noc(C(F)(F)F)n3)ccc2n1` [Compound 21, N-methyl-6-(5-(trifluoromethyl)-1,2,4-oxadiazol-3-yl)imidazo[1,2-a]pyridine-2-carboxamide] the pest or weed control at 500 ppm was ≥ 70%.

`COc1ccc(NC(=O)c2cn3cc(-c4noc(C(F)(F)F)n4)ccc3n2)cc1` [Compound 22, N-(4-methoxyphenyl)-6-(5-(trifluoromethyl)-1,2,4-oxadiazol-3-yl)imidazo[1,2-a]pyridine-2-carboxamide] was tested, and the pest or weed control at 500 ppm was ≥ 70%.

With `O=C(NCc1ccccc1)c1cn2cc(-c3noc(C(F)(F)F)n3)ccc2n1` [Compound 23, N-benzyl-6-(5-(trifluoromethyl)-1,2,4-oxadiazol-3-yl)imidazo[1,2-a]pyridine-2-carboxamide] the pest or weed control at 500 ppm was ≥ 70%.

In the case of `O=C(Nc1cccc(F)c1)c1cn2cc(-c3noc(C(F)(F)F)n3)ccc2n1` [Compound 24, N-(3-fluorophenyl)-6-(5-(trifluoromethyl)-1,2,4-oxadiazol-3-yl)imidazo[1,2-a]pyridine-2-carboxamide], the pest or weed control at 500 ppm is reported as ≥ 70%.

In the case of `CN(C)C(=O)c1cn2cc(-c3noc(C(F)(F)F)n3)ccc2n1` [Compound 25, N,N-dimethyl-6-(5-(trifluoromethyl)-1,2,4-oxadiazol-3-yl)imidazo[1,2-a]pyridine-2-carboxamide], the pest or weed control at 500 ppm is reported as ≥ 70%.

`O=C(Nc1ccc(Cl)cc1F)c1cn2cc(-c3noc(C(F)(F)F)n3)ccc2n1` [Compound 26, N-(4-chloro-2-fluorophenyl)-6-(5-(trifluoromethyl)-1,2,4-oxadiazol-3-yl)imidazo[1,2-a]pyridine-2-carboxamide] was tested, and the pest or weed control at 500 ppm was ≥ 70%.

`N#Cc1ccc(NC(=O)c2cn3cc(-c4noc(C(F)(F)F)n4)ccc3n2)cc1` [Compound 27, N-(4-cyanophenyl)-6-(5-(trifluoromethyl)-1,2,4-oxadiazol-3-yl)imidazo[1,2-a]pyridine-2-carboxamide] was tested, and the pest or weed control at 500 ppm was ≥ 70%.

With `COc1ccccc1NC(=O)c1cn2cc(-c3noc(C(F)(F)F)n3)ccc2n1` [Compound 28, N-(2-methoxyphenyl)-6-(5-(trifluoromethyl)-1,2,4-oxadiazol-3-yl)imidazo[1,2-a]pyridine-2-carboxamide] the pest or weed control at 500 ppm was ≥ 70%.

`O=C(Nc1cccnc1)c1cn2cc(-c3noc(C(F)(F)F)n3)ccc2n1` [Compound 29, N-(pyridin-3-yl)-6-(5-(trifluoromethyl)-1,2,4-oxadiazol-3-yl)imidazo[1,2-a]pyridine-2-carboxamide] was tested, and the pest or weed control at 500 ppm was ≥ 70%.

For `O=C(Nc1c(F)cccc1F)c1cn2cc(-c3noc(C(F)(F)F)n3)ccc2n1` [Compound 30, N-(2,6-difluorophenyl)-6-(5-(trifluoromethyl)-1,2,4-oxadiazol-3-yl)imidazo[1,2-a]pyridine-2-carboxamide], the pest or weed control at 500 ppm was ≥ 70%.

For `O=C(NCc1cccc(F)c1)c1cn2cc(-c3noc(C(F)(F)F)n3)ccc2n1` [Compound 31, N-(3-fluorobenzyl)-6-(5-(trifluoromethyl)-1,2,4-oxadiazol-3-yl)imidazo[1,2-a]pyridine-2-carboxamide], the pest or weed control at 500 ppm was ≥ 70%.

`O=C(Nc1ccncc1)c1cn2cc(-c3noc(C(F)(F)F)n3)ccc2n1` [Compound 32, N-(pyridin-4-yl)-6-(5-(trifluoromethyl)-1,2,4-oxadiazol-3-yl)imidazo[1,2-a]pyridine-2-carboxamide] was tested, and the pest or weed control at 500 ppm was ≥ 70%.

`COCCNC(=O)c1cn2ccc(-c3noc(C(F)(F)F)n3)cc2n1` [Compound 34, N-(2-methoxyethyl)-7-(5-(trifluoromethyl)-1,2,4-oxadiazol-3-yl)imidazo[1,2-a]pyridine-2-carboxamide] was tested, and the pest or weed control at 500 ppm was ≥ 70%.

With `CC(C)CNC(=O)c1cn2ccc(-c3noc(C(F)(F)F)n3)cc2n1` [Compound 35, N-isobutyl-7-(5-(trifluoromethyl)-1,2,4-oxadiazol-3-yl)imidazo[1,2-a]pyridine-2-carboxamide] the pest or weed control at 500 ppm was ≥ 70%.

In the case of `CC(C)(C)CNC(=O)c1cn2ccc(-c3noc(C(F)(F)F)n3)cc2n1` [Compound 36, N-neopentyl-7-(5-(trifluoromethyl)-1,2,4-oxadiazol-3-yl)imidazo[1,2-a]pyridine-2-carboxamide], the pest or weed control at 500 ppm is reported as ≥ 70%.

With `O=C(NCc1ccc(Cl)cc1)c1cn2ccc(-c3noc(C(F)(F)F)n3)cc2n1` [Compound 38, N-(4-chlorobenzyl)-7-(5-(trifluoromethyl)-1,2,4-oxadiazol-3-yl)imidazo[1,2-a]pyridine-2-carboxamide] the pest or weed control at 500 ppm was ≥ 70%.

For `O=C(NCc1cccc(Cl)c1)c1cn2ccc(-c3noc(C(F)(F)F)n3)cc2n1` [Compound 40, N-(3-chlorobenzyl)-7-(5-(trifluoromethyl)-1,2,4-oxadiazol-3-yl)imidazo[1,2-a]pyridine-2-carboxamide], the pest or weed control at 500 ppm was ≥ 70%.

`COc1cccc(CNC(=O)c2cn3ccc(-c4noc(C(F)(F)F)n4)cc3n2)c1` [Compound 41, N-(3-methoxybenzyl)-7-(5-(trifluoromethyl)-1,2,4-oxadiazol-3-yl)imidazo[1,2-a]pyridine-2-carboxamide] was tested, and the pest or weed control at 500 ppm was ≥ 70%.

With `O=C(NCc1ccccc1F)c1cn2ccc(-c3noc(C(F)(F)F)n3)cc2n1` [Compound 42, N-(2-fluorobenzyl)-7-(5-(trifluoromethyl)-1,2,4-oxadiazol-3-yl)imidazo[1,2-a]pyridine-2-carboxamide] the pest or weed control at 500 ppm was ≥ 70%.

With `CN(C)c1ccc(CNC(=O)c2cn3ccc(-c4noc(C(F)(F)F)n4)cc3n2)cc1` [Compound 43, N-(4-(dimethylamino)benzyl)-7-(5-(trifluoromethyl)-1,2,4-oxadiazol-3-yl)imidazo[1,2-a]pyridine-2-carboxamide] the pest or weed control at 500 ppm was ≥ 70%.

With `O=C(NCc1ccc(Cl)c(Cl)c1)c1cn2ccc(-c3noc(C(F)(F)F)n3)cc2n1` [Compound 44, N-(3,4-dichlorobenzyl)-7-(5-(trifluoromethyl)-1,2,4-oxadiazol-3-yl)imidazo[1,2-a]pyridine-2-carboxamide] the pest or weed control at 500 ppm was ≥ 70%.

`CCOC(=O)c1cn2ccc(-c3noc(C(F)(F)F)n3)cc2n1` [Compound 45, ethyl 7-(5-(trifluoromethyl)-1,2,4-oxadiazol-3-yl)imidazo[1,2-a]pyridine-2-carboxylate hydrobromide] was tested, and the pest or weed control at 500 ppm was ≥ 70%.

For `FC(F)(F)c1nc(-c2ccn3cc(CSc4ccc(Cl)cc4)nc3c2)no1` [Compound 47, 3-(2-(((4-chlorophenyl)thio)methyl)imidazo[1,2-a]pyridin-7-yl)-5-(trifluoromethyl)-1,2,4-oxadiazole], the pest or weed control at 500 ppm was ≥ 70%.

With `Fc1ccc(SCc2cn3ccc(-c4noc(C(F)(F)F)n4)cc3n2)cc1` [Compound 48, 3-(2-(((4-fluorophenyl)thio)methyl)imidazo[1,2-a]pyridin-7-yl)-5-(trifluoromethyl)-1,2,4-oxadiazole] the pest or weed control at 500 ppm was ≥ 70%.

For `O=S(=O)(Cc1cn2ccc(-c3noc(C(F)(F)F)n3)cc2n1)c1ccc(F)cc1` [Compound 57, 3-(2-(((4-fluorophenyl)sulfonyl)methyl)imidazo[1,2-a]pyridin-7-yl)-5-(trifluoromethyl)-1,2,4-oxadiazole], the pest or weed control at 500 ppm was ≥ 70%.

With `O=S(=O)(Cc1cn2ccc(-c3noc(C(F)(F)F)n3)cc2n1)c1ccccc1` [Compound 58, 3-(2-((phenylsulfonyl)methyl)imidazo[1,2-a]pyridin-7-yl)-5-(trifluoromethyl)-1,2,4-oxadiazole] the pest or weed control at 500 ppm was ≥ 70%.

In the case of `O=S(=O)(Cc1cn2ccc(-c3noc(C(F)(F)F)n3)cc2n1)c1ccccc1F` [Compound 59, 3-(2-(((2-fluorophenyl)sulfonyl)methyl)imidazo[1,2-a]pyridin-7-yl)-5-(trifluoromethyl)-1,2,4-oxadiazole], the pest or weed control at 500 ppm is reported as ≥ 70%.

For `O=C(NCc1ccc(C(F)(F)F)cc1)c1cn2cc(-c3noc(C(F)(F)F)n3)ccc2n1` [Compound 63, 6-(5-(trifluoromethyl)-1,2,4-oxadiazol-3-yl)-N-(4-(trifluoromethyl)benzyl)imidazo[1,2-a]pyridine-2-carboxamide], the pest or weed control at 500 ppm was ≥ 70%.

`O=C(c1cn2cc(-c3noc(C(F)(F)F)n3)ccc2n1)N1CCOCC1` [Compound 64, morpholino(6-(5-(trifluoromethyl)-1,2,4-oxadiazol-3-yl)imidazo[1,2-a]pyridin-2-yl)methanone] was tested, and the pest or weed control at 500 ppm was ≥ 70%.

For `CC(C)CNC(=O)c1cn2cc(-c3noc(C(F)(F)F)n3)ccc2n1` [Compound 66, N-isobutyl-6-(5-(trifluoromethyl)-1,2,4-oxadiazol-3-yl)imidazo[1,2-a]pyridine-2-carboxamide], the pest or weed control at 500 ppm was ≥ 70%.
